Measurements: patent US6492334B1, “Tri-compound analgesic for treating inflammation and pain” (priority 1999, dated 2002)

Columns and labels:
arthritis = details: as reported by the American Rheumatism Association; cited from earlier work
diagnosed torn muscle = assay: Treatment of a subject with diagnosed torn muscle; assay type: in vivo, human; details: person; for side effect of the prescriptions: NAPROSYN and FLEXERIL prescribed together; for relief by the third day: NAPROSYN and FLEXERIL prescribed together with bed rest, ice packs, heat
Text: The seventh subject was a person with a diagnosed torn muscle. Emergency Room treatment prescribed NAPROSYN (the trademark name for the drug naproxen sodium) an NSAID, and FLEXERIL(the trademark name for the drug cyclobenzaprene) a muscle relaxant. Also prescribed was bed rest and ice packs for the next 2 to 3 days. Heat was to be used by the second day to relieve spasm. […] This subject was given a protocol of 5 gram of ACI per dose, not the 3 gram ACI per dose as in the previous examples. This protocol was to be taken every hours 4 times per day.
In all examples mentioned there was no compounding of any pills and no placebos were given.

| SMILES | effect on arthritis compared with placebo (arthritis) | side effect of the prescriptions (diagnosed torn muscle) | relief by the third day (diagnosed torn muscle) |
| --- | --- | --- | --- |
| COc1ccc2c(c1)c(CC(=O)O)c(C)n2C(=O)c1ccc(Cl)cc1 [INDOCIN, indomethacin] | no more effect on arthritis than a placebo | – | – |
| CN(C)CCC=C1c2ccccc2C=Cc2ccccc21 [FLEXERIL, cyclobenzaprene] | – | made them drowsy | no relief |
| COc1ccc2cc([C@H](C)C(=O)O)ccc2c1 [NAPROSYN, naproxen sodium] | – | made them drowsy | no relief |
